Laboratory results as given in patent publication US6013242A, “Tropane derivatives with selective binding to the serotonin reuptake transporters for treatment of mental illness and as intermediates in the formation of imaging diagnostic agents for depression” (Wake Forest University, priority 1998, dated 2000).
Like-named read-outs stand apart in the source and are kept apart here.

Assays:
[1] = target: T1, serotonin (5-HT) transporter (Rattus norvegicus, UniProt P31652); assay: displacement of [3H]paroxetine binding to 5-HT transporter; conditions: for 5-HT/DA potency ratio: selectivity for 5-HT over DA transporter; for 5-HT/NE potency ratio: selectivity for 5-HT over NE transporter
T1 construct: from tissue; host or cells: rat frontal cortex

[2] = target: T2, norepinephrine (NE) transporter (Rattus norvegicus, UniProt Q63380); assay: displacement of [3H]nisoxetine binding to NE transporter; conditions: rat brain membranes
T2 construct: rat brain membranes; from tissue

[3] = target: T3, dopamine (DA) transporter (Rattus norvegicus, UniProt P23977); assay: displacement of [125I]RTI-55 binding to dopamine transporter; conditions: [125I]RTI-55, rat striatal membranes
T3 construct: was used to label dopamine transporters in rat striatal membranes; from tissue; host or cells: rat striatum (membranes)

[4] = target: T1, serotonin (5-HT) transporter; conditions: earlier tropanes (U.S. Ser. No. 08/589,820), 5-HT vs dopamine transporter; cited from earlier work
[5] = [3H]paroxetine, rat frontal cortex

T2 sequence (Q63380 1-617): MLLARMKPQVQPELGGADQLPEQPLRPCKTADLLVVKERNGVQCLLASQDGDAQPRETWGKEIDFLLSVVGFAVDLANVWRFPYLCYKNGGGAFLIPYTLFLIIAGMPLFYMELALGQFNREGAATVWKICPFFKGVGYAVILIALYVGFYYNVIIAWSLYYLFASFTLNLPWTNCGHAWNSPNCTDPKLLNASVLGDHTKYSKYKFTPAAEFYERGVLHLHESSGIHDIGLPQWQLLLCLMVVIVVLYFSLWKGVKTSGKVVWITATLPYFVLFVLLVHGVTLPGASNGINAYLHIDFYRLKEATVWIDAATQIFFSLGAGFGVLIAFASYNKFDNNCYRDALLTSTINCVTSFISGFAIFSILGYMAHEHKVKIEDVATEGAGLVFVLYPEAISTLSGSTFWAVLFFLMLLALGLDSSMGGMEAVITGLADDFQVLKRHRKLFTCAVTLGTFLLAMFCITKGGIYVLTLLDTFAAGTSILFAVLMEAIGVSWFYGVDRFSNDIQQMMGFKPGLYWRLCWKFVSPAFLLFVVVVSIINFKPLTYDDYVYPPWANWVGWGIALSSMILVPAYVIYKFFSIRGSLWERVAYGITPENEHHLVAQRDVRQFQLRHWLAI
T3 sequence (P23977 whole entry): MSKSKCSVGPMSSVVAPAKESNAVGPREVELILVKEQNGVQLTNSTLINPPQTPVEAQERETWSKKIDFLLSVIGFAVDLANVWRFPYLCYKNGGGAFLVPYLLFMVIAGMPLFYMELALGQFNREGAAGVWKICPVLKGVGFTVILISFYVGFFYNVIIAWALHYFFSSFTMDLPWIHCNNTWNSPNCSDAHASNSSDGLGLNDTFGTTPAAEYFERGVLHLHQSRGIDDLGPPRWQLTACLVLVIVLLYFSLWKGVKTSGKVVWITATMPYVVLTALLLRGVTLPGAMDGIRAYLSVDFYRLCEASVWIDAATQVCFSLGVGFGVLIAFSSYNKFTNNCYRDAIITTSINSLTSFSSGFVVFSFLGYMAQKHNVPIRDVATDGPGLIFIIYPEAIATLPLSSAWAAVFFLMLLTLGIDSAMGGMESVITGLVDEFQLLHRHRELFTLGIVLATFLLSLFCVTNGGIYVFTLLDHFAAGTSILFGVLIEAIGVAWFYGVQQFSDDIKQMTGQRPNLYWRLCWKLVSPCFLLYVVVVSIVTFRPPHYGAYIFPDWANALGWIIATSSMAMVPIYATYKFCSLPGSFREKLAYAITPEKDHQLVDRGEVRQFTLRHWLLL
T1 sequence (P31652 whole entry): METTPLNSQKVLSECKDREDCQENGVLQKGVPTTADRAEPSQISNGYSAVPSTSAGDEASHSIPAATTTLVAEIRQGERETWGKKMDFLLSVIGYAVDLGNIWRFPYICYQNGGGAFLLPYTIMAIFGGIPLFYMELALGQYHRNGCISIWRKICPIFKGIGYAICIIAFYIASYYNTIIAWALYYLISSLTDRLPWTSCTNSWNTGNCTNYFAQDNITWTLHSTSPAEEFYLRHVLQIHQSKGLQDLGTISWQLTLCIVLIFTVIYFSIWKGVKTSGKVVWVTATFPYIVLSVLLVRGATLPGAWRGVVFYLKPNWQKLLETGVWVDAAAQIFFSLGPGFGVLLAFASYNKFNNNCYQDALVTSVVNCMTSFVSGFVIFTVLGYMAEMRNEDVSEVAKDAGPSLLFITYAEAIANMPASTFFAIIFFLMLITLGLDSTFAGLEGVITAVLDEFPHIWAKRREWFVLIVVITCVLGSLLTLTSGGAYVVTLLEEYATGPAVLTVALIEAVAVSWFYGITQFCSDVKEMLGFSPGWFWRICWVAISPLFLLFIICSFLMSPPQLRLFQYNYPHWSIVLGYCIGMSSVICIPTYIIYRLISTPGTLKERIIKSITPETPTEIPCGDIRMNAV

Row | Structure (SMILES) | Ki [1] [nM] | 5-HT/DA potency ratio [1] | 5-HT/NE potency ratio [1] | Ki [2] [nM] | IC50 [3] [nM] | Ki [1, 5] [nM] | transporter selectivity (in words) [4]
1 | C=C(C)c1ccc([C@H]2C[C@@H]3CC[C@H]([C@H]2C(=O)CC)N3C)cc1 (relative stereo) [Example 1] | 0.82 ± 0.38 | 8.8 | 970 | 794 ± 110 | 7.2 ± 2.1 | – | –
2 | C=C(C)c1ccc([C@H]2C[C@@H]3CC[C@@H](N3)[C@H]2C(=O)CC)cc1 (relative stereo) [Example 2] | 0.11 ± 0.02 | 150 | 850 | 94 ± 18 | 16 ± 4.9 | – | –
3 | CCC(=O)[C@H]1[C@@H](c2ccc(-c3cccn3C)cc2)C[C@@H]2CC[C@H]1N2C (relative stereo) [Example 3, 8-Methyl-2β-propanoyl-3β-[4-(N-methyl-2-pyrrolyl)phenyl]-8-azabicyclo[3,2,1]octane] | – | 24 | > 15,000 | > 10000 | 703 ± 222 | 25.6 ± 4.1 | –
4 | CCC(=O)[C@H]1[C@@H](c2ccc(-c3cccn3C)cc2)C[C@@H]2CC[C@H]1N2 (relative stereo) [Example 4, 2.beta .-Propanoyl-3β-[4-(N-methyl-2-pyrrolyl)phenyl]-8-azabicyclo[3.2.1]octane] | – | 590 | > 25,000 | > 10000 | 614 ± 98 | 1.05 ± 0.2 | –
5 | CCC(=O)[C@H]1[C@@H](c2ccc(C=C(C)C)cc2)C[C@@H]2CC[C@H]1N2C (relative stereo) [Example 5, 8-Methyl-2β-Propanoyl-3β-[4-(2-methylpropenyl)phenyl]-8-azabicyclo[3.2.1]octane] | – | 6 | 448 | 4130 ± 785 | 51.3 ± 15.5 | 9.22 ± 2.4 | –
6 | CCC(=O)[C@H]1[C@@H](c2ccc(C=C(C)C)cc2)C[C@@H]2CC[C@H]1N2 (relative stereo) [Example 6, 2.beta .-Propanoyl-3β-[4-(2-methylpropenyl)phenyl]-8-azabicyclo[3.2.1]octanem] | 0.404 ± 0.1 | 240 | 3097 | 1250 ± 124 | 96.3 ± 17.1 | – | –
7 | CCC(=O)[C@H]1[C@@H](c2ccc(/C=C/I)cc2)C[C@@H]2CC[C@H]1N2 (relative stereo) [Example 11, (E)-2β-Propanoyl-3β-[4-(2-iodoethenyl)phenyl]-8-azab icyclo[3.2.1]octane] | 0.619 ± 0.078 | 83 | 80 | 49.7 ± 10.6 | 51.3 ± 5.6 | – | –
8 | CCC(=O)[C@H]1[C@@H](c2ccc(/C=C(\C)I)cc2)C[C@@H]2CC[C@H]1N2 (relative stereo) [Example 12, (E)-2β-Propanoyl-3. beta.-[4-(2-iodopropenyl)phenyl]-8-azabicyclo[3.2.1]octane] | 0.566 ± 0.027 | 708 | 645 | 365 ± 118 | 401 ± 73 | – | –
9 | CCC(=O)[C@H]1[C@@H](c2ccc(/C=C(/C)I)cc2)C[C@@H]2CC[C@H]1N2 (relative stereo) [Example 13, (Z)-2β-Pr opanoyl-3β-[4-(2-iodopropenyl)phenyl]-8-azabicyclo[3.2.1]octane] | 0.131 ± 0.03 | 507 | 509 | 66.7 ± 17.1 | 66.5 ± 11.1 | – | –
10 | CCC(=O)C1C(c2ccc3ccccc3c2)CC2CCC1N2C (stereo not shown) [2-naphthyl derivative] | – | – | – | – | – | – | unselective
11 | C=C(C)c1ccc(C2CC3CCC(N3)C2C(=O)CC)cc1 (stereo not shown) [4-(1-methylethenyl)phenyl derivative] | – | – | – | – | – | – | most selective compound described in the previous case
12 | C=C(CC)c1ccc([C@H]2C[C@@H]3CC[C@H]([C@H]2C(=O)CC)N3C)cc1 [Example 7, (R)-8-Methyl-2β-propanoyl-3β-[4-(1-ethylethenyl)phenyl]-8-azabicyclo[3.2.1]octanem] | 1.13 ± 0.3 | 20 | 1000 | 1140 ± 606 | 22.1 ± 7.76 | – | –
13 | C=C(CC)c1ccc(C2CC3CCC(N3)C2C(=O)CC)cc1 [Example 8, (R)-2. beta.-Propanoyl-3β-[4-(1-ethylethenyl)phenyl]-8-azabicyclo[3.2.1]octane] | 0.194 ± 0.1 | 200 | 1790 | 347 ± 54.8 | 37.9 ± 12.9 | – | –
14 | C/C=C/c1ccc([C@H]2C[C@@H]3CC[C@H]([C@H]2C(=O)CC)N3C)cc1 [Example 9, (R)-(E )-8-Methyl-2β-propanoyl-3β-[4-(1-propenyl)phenyl]-8-azabicyclo[3.2.1]octane] | 1.17 ± 0.46 | 1.5 | 250 | 292 ± 71.7 | 1.59 ± 0.66 | – | –
15 | CC=Cc1ccc(C2CC3CCC(N3)C2C(=O)CC)cc1 [Example 10, (R)-(E )-2β-Propanoyl-3β-[4-(1-propenyl)phenyl]-8-azabicyclo[3.2.1]octane] | 0.236 | 8 | 108 | 25.6 ± 9.6 | 1.94 ± 0.96 | – | –
